Source: patent US6586187B1, “Methods for solid phase combinatorial synthesis of integrin inhibitors” (Wyeth, priority 1999, dated 2003)
Positions of bridges follow the written chain, without caps; N, C: chain ends. No end group written: not given here.

How the values were obtained:
osteoclasts = test: Osteoclast Pitting Assay; format: cell-based; settings: neonatal rat osteoclasts on bovine cortical bone slices
Procedure: The assay is conduct ed as described in Murrills and Dempster (1990) Bone 11:333-344. Briefly, 4×4×0.2 mm slices of devitalized bovine cortical bone are numbered, placed in the wells of 96-well culture plates and wetted with 100 ul of Medium 199 containing Hanks salts, 10 mM HEPES, pH 7.0 (Medium 199/Hanks). Bone cell suspensions containing osteoclasts are prepared by mincing the long bones of neonatal rats (Sprague-Dawley , 4-6 days old) in Medium 199/Hanks. 100 uL of the suspension are then plated onto each slice and incubated 30 minutes to allow osteoclasts to adhere. The slices are rinsed to remove non-adherent cells and incubated 24 h in Medium 199 containing Earle's salts, 10 mM HEPES and 0.7 g/L NaHCO3, which equilibrates at pH 6.9 in a 5% CO2 atmosphere. At this pH the adherent osteoclasts excavate an adequate number of resorption pits for assay purposes. Slices are fixed in 2.5% glutaraldehyde and osteoclasts counted following tartrate-resistant acid phosphatase staining. […] Resorption pits are quantified by manually counting.
The experiments are conducted according to a block design with osteoclasts from each animal exposed to each treatment. […] Several parameters are recorded on a “per slice” basis: number of pits, number of osteoclasts, number of pits per osteoclast, number of fibroblast-like bone cells. […] IC50s are calculated for active compounds using dose-response curves.

[1] = molecular target: Vitronectin Receptor (αvβ3) (Homo sapiens, UniProt P05106+P06756); test: Vitronectin Receptor (αvβ3) Binding Assay; settings: at 100 μM; 125I-Echistatin, 512P5 cell membranes
Chain of Vitronectin Receptor (αvβ3) (P06756 31-889 limits assumed): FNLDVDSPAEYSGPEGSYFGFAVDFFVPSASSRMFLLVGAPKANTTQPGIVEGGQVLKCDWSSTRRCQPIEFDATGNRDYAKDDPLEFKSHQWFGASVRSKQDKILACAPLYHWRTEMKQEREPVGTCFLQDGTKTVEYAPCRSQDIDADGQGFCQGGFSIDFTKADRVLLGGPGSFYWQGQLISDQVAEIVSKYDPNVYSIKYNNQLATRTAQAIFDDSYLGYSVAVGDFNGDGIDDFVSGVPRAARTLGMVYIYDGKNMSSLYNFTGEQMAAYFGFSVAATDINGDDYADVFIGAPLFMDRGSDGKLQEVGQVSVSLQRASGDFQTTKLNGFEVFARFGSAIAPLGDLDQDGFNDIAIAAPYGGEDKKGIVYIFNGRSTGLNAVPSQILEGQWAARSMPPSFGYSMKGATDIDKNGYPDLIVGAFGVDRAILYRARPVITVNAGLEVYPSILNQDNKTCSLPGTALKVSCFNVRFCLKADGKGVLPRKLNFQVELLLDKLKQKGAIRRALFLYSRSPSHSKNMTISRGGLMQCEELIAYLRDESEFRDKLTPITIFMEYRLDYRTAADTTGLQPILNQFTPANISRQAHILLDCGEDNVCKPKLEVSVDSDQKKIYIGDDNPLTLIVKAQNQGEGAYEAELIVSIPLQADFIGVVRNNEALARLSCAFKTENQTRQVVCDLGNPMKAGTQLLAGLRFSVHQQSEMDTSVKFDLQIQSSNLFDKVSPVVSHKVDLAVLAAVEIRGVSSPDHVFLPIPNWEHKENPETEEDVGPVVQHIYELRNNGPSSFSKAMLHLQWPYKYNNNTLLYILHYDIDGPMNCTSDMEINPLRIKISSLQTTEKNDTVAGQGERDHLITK
Chain of Vitronectin Receptor (αvβ3) (P06756 891-1048 limits assumed): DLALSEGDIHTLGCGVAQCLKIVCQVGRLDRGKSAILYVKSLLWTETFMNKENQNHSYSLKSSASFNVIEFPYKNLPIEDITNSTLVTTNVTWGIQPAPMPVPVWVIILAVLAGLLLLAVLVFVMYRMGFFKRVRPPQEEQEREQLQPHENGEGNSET
Chain of Vitronectin Receptor (αvβ3) (P05106 27-788): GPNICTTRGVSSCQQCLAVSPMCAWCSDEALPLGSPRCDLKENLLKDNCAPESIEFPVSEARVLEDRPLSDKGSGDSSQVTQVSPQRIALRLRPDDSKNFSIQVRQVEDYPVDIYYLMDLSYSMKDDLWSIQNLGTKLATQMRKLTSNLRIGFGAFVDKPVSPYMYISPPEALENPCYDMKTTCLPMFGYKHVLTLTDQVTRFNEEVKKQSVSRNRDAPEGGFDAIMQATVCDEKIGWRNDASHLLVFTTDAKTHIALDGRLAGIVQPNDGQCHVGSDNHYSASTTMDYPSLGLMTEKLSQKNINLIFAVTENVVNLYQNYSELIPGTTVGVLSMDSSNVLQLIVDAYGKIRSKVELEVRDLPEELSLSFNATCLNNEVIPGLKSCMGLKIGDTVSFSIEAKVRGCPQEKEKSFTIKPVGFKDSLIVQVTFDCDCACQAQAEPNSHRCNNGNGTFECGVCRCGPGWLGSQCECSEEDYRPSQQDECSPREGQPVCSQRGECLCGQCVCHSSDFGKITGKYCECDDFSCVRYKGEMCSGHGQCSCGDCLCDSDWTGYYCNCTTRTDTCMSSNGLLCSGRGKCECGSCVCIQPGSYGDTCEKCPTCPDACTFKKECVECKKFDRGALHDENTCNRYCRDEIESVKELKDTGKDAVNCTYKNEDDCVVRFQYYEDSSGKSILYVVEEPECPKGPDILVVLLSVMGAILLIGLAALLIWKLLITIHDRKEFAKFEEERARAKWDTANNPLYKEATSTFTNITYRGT

ability to inhibit avb3 binding [1]	Substance	osteoclast inhibitory activity (osteoclasts)
–	Calcitonin: reference compound of the osteoclast pitting assay; used as anti-resorptive in the clinic (CGNLSTCMLGTYTQDLNKFHTFPQTSIGVGAP-NH2; disulfide 1-7; ends not checked; UniProt P01257 85-116, looked up)	significant osteoclast inhibitory activity
inactive at 100 μM	GRGESP: reference peptide, structure given by standard single letter designation for amino acids	–
